Assay results reported in patent publication US20190284192A1, “NITROGENOUS MACROCYCLIC COMPOUND, PREPARATION METHOD THEREFOR, PHARMACEUTICAL COMPOSITION AND APPLICATION THEREOF” (LUOXIN PHARMACEUTICAL (SHANGHAI) CO., LTD., priority 2016, published 2019).
Read-outs that look alike come from different tables or passages of the source.

What was measured:
MV-4-11 cells = assay: Inhibitory effect on MV-4-11 cells (CellTiter-Glo); assay type: cell-based; conditions: Homo sapiens, read-out: MV-4-11
Method: 2. The cells were transferred to a 15 mL centrifuge tube, after centrifuged at 1000 rpm for 5 min, the supernatant was discarded;
3. The complete medium (IMDM+10% FBS) was added, then blown and patted into single cell suspension, counted by Vi-cell cytometer, the cell suspension was adjusted to desired cell density by the complete medium.
4. The cells were inoculated into a 96 well plate, the cell number was 15000/well at 100 μL per well, 100 μL complete medium was added into the black control.
2. Intermediate plate areparation
6. XLfit was used for data processing. Inhibition rate %=(d−c)/(d−b)×100, while d is the signal value of the DMSO treated group, c is the signal value of the compound treated group, b is signal value of the blank control that only containing medium and DMSO without cells. The data was fitted using the f(x)205[fit=(A+((B−A)/(1+((C/x)^∧D))))] equation in the XLfit software.

BRD4 (BD1) = molecular target: T1, BRD4 (BD1) (Homo sapiens, UniProt O60885); assay: BRD4 (BD1) bromodomain binding, HTRF; conditions: 2 h incubation at r.t.
T1 construct: Each member comprises two tandem bromodomains (BD1 and BD2) for recognizing the acetylated lysine residues

[1] = Cassette pharmacokinetic study, intravenous or oral administration; assay type: in vivo, female Balb/c nude mice; design: Cmax: unit not given here; conditions: for half-life: read-out: Terminal t1/2 (converted)
Method: Determinations of the pharmacokinetic parameters of ABBV-075 (standard control), 4009, 4018, 4026 and 4031 in femal Balb/c nude mice after intravenous or oral administration.
Detailed Experimental Steps:
6 female Balb/c nude mice weighing 18-20 g were divided into two groups (3/group), after fixation, the intravenous group: 0.5 mg/kg (5 mL/kg) injected by caudal vein (N=3); the oral group: 2 mg/kg (10 mL/kg) by intragastic administration (N=3). Approximately 20 μL of blood was drawn behind the eyeball at the sampling point and placed in EDTA-2K tube. The sample was immediately diluted with 40 μL of double distilled water and vortexed until well mixed. Blood samples were stored at approximately −70° C. and submitted to the BA group for analysis (LC/MS). 30 μL of blood sample was added with 200 μL of H2O and 30 μL of IS dexamethasone, 200 ng/mL), layered by LLE, and 1 mL of MTBW was added as an organic extraction solvent. The mixture was vortexed for 10 min and centrifuged at 10,000 rpm for 5 min. 850 μL of the supernatant was evaporated under nitrogen until desiccated. The desiccated extract was re-mixed with 150 μL of 50% methanol, vortexed for 2 min, and then analyzed by injecting 5 μL of the supernatant into LC-MS/MS.
2. Intravenous/oral administration formula: 5% DMSO, 95% (10% HP-3-CD in water)
3. PK calculation parameter used non-compartment model, WinNonlin 6.4 software calculation

BRD4 (BD2) = molecular target: T2, BRD4 (BD2) (Homo sapiens, UniProt O60885); assay: BRD4 (BD2) bromodomain binding, HTRF; conditions: 2 h incubation at r.t.
T2 construct: Each member comprises two tandem bromodomains (BD1 and BD2) for recognizing the acetylated lysine residues

[2] = Metabolic stability in human liver microsomes; assay type: in vitro ADME; conditions: human liver microsomes 0.5 mg/mL, NADPH, 37° C.
Method: (§1) Determinations of the metabolic stability of the compound from the above embodiments, the detailed operation steps are as followed:
(§2) 1. Preparation of buffer C:
(§3) Buffer A: 1.0 L of 0.1 M potassium dihydrogen phosphate buffer (containing 1.0 mM EDTA);
(§4) Buffer B: 1.0 L of 0.1 M dipotassium hydrogen phosphate buffer (containing 1.0 mM EDTA);
(§5) Buffer C: 500 mL Buffer B was titrated with Buffer A to pH 7.4.
(§6) 2. 10 mM stock solution preparation:
(§7) 10 mM test compound: A certain amount of the test compound was weighed and dissolved in DMSO.
(§8) 10 mM control: 5.455 mg of ketanserin dissolved in 1 mL DMSO.
(§9) 3. Preparation of the drug solution:
(§10) 500 μM solution: 5 μL of 10 mM stock solution (see step 2) was added into 95 μL ACN;
(§11) 1.5 μM dosing solution (dissolved in liver microsome solution):
(§12) 18.75 μL of 20 mg/mL liver microsomes was added into 479.75 μL of Buffer C, then 1.5 μL of 500 μM solution was added and mixed gently by shaking.
(§13) 4. Preparation of 6 mM NADPH solution:
(§14) 15 mg NADPH was weighted, then added into 3 mL of buffer C to prepare a 6 mM NADPH solution.
(§15) 5. 30 µL of 1.5 μM dosing solution (see step 3) was added into the wells of the 96-well plate set at different time points (0 minutes, 5 minutes, 15 minutes, 30 minutes, 45 minutes), number of dulplicate sample is 2.
(§16) 6. Preparation of a 0 minutes sample: 135 μL ACN (with internal standard) was added to the 0 minutes well, followed by 15 µL of 6 mM NADPH solution.
(§17) 7. The 96-well plate containing 1.5 μM dosing solution and NADPH solution were preheated in a 37° C. water bath for 5 minutes.
(§18) 8. The 15 µL of 6 mM NADPH solution preheated was added into the wells set to 5 minutes, 15 minutes, 30 minutes, 45 minutes, then the reaction was initiated and started counting the time.
(§19) 10. The sample was vortexed for 10 min, and then centrifuged for 15 minutes on a centrifuge (Thermo Multifuge×3R) using 5594×g.
(§20) 11. 50 μL of the supernatant was taken from the centrifuged sample, transferred to a 96-well sample plate to which 100 μL of ultrapure water had already been added, mixed, and finally sent to LC-MS/MS for analysis.
(§21) Half time (T1/2)=0.693/K (K is the rate constant obtained by linear regression of the logarithm of the concentration as vertical coordinates and the culturing time as the abscissa)
(§22) 2. According to the equation formula bellow, Excel was used to plot the compound content versus reaction time, as well as half life calculation (min)
(§23) Y=(Y0−Plateau)×e^(−K*X)+Plateau
(§24) Y0 represents the compound content at 0 minutes; Y represents the compound content; X represents the time point; K represents degration rate constant of the compound; Plateau represents the lowest possible content of the compound (defined herein as 0).

[3] = Metabolic stability in mouse liver microsomes; assay type: in vitro ADME; conditions: mouse liver microsomes 0.5 mg/mL, NADPH, 37° C.
Method: as §1, §2, §3, §4, §5, §6, §7, §8, §9, §10, §11, §12, §13, §14, §15, §16, §17, §18, §19, §20, §21, §22, §23, §24

SU-DHL-6 cells = assay: Inhibitory effect on SU-DHL-6 cells (CellTiter-Glo); assay type: cell-based; conditions: Homo sapiens, read-out: SU-DHL-6
Method: Determinations of the inhibition of the compounds from the above embodiments against SU-DHL-6 cells, the detailed operation steps are as followed:
The 1st Day: Seed the Cells on the Plate
1. The cells were verified that they were in good conditions by observation under microscope;
2. The cells were transferred to a centrifuge tubes, after centrifuged at 1000 rpm for 5 min, the supernatant was discarded;
3. The complete substrate (1640+10% FBS) was added, then blown and patted into single cell suspension, counted by Vi-cell cytometer, the cell suspension was adjusted to desired cell density by the complete medium.
4. The cells were inoculated into a 96 well plate, the cell number was 12000/well at 100 μL per well, 100 μL complete medium was added into the black control;
5. 37° C., 5% CO2 culture overnight.
The 2nd Day: Addition of the Drugs
1. 1000× Compound Plate Preparation
1.1. The test compound was prepared into 10 mM working solution by using DMSO. Then the STS was prepared into 2 mM working solution by using DMSO.
1.2. In the round bottom 96 wells plate, the column 2 of row A to H was added into 60 μL 10 mM test compound (or STS) working solution, columns 3-11 were added into 40 μL DMSO, 20 μL drug solution was pipetted from the column 2 to the column 3, blown and patted for a homogeneous mixture; then 20 μL solution was pipetted from the column 3 to the column 4, blown and patted for a homogeneous mixture, sequently, the drug was diluted by 3 times, 10 concentrations in total. The columns 1 and 12 were supplemented with 40 μL of DMSO.
2. Intermediate plate preparation
A sterile V-bottom 96 deep well plate was used and in each well, 495 μL FBS-free PRMI 1640 medium was added, then 5 μL of the diluted compound (or DMSO) in the 1000× compound plate was pipetted into corresponding position of the V-bottom 96 well plate, blown and patted evenly.
3.1. The cell plate was taken out from the incubator and was observed under microscope. The diluted compound or DMSO in the intermediate plate was added into the cell plate, 11 μL each well.
3.2. The cell was continued to be cultured at 37° C., 5% CO2 for 72 hours.
The 5th Day: CellTiter-Glo Detection of the Cell Activity
1. The CellTiter-Glo buffer and the reaction substrate were taken out from the refrigerator, after balanced to r.t., the buffer was poured into a brown bottle containing the substrate, the bottle was upside down to have the substrate powder sufficientaly dissolved.
2. The cell was observed under microscope; the cell plate was balanced to r.t.
3. The prepared CellTiter-Glo was added into the 96 well plate, at 100 μL/well.
4. The cell plate was placed on a shaker for 10 min, followed by standing at r.t. for 10 min.
5. A white seal film was attached to the bottom of the well plate, and the chemiluminescence signal of each well was detected by the Enspire microplate detector.
6. XLfit was used for data processing. Inhibition rate %=(d-c)/(d-b)×100, while d is the signal value of the DMSO treated group, c is the signal value of the compound treated group, b is signal value of the blank control that only containing medium and DMSO without cells. The data was fitted using the f (x)205[fit=(A+((B−A)/(1+((C/x)^∧D))))] equation in the XLfit software.

[4] = MV4-11, 72 hours, CellTiter-Glo
[5] = female, Balb/c nude, mouse, whole blood, IV 0.5 mg/kg, N = 3, cassette
[6] = female, Balb/c nude, mouse, whole blood, PO 2 mg/kg, N = 3, cassette

CCS(=O)(=O)Nc1cc2c(cc1Cl)C(c1ccc(F)cc1)=NCc1cc(=O)n(C)cc1-2 [Compound 4031, N-(9-chloro-7-(4-flurophenyl)-2-methyl-3-oxo-3,5-dihydro-2H-benzo[c]pyrido[3,4-e]azepin-10-yl)ethylsulfonamide]
IC50 (MV-4-11 cells; [4]): 3 nM
IC50 (BRD4 (BD1)): 2 nM
F ([1]; PO 2 mg/kg vs IV 0.5 mg/kg): 108%
Cmax ([1]; PO 2 mg/kg, N = 3, cassette): 1009
AUC(0-inf) [1, 5]: 771 ng·h/mL
AUC(0-t) [1, 5]: 729 ng·h/mL
MRT inf [1, 5]: 3.5 h
clearance [1, 5]: 10.9 mL/min/kg
half-life [1, 5]: 2.72 h
Vd ([1]; female, Balb/c nude, mouse, whole blood, IV 0.5 mg/kg, N = 3, cassette, read-out: Vss): 2.34 L/kg
AUC(0-inf) [1, 6]: 3330 ng·h/mL
AUC(0-t) [1, 6]: 3300 ng·h/mL
Tmax [1, 6]: 0.5 h
half-life [1, 6]: 3.84 h
IC50 (BRD4 (BD2)): 1 nM
HLM_T1/2 [2]: ∞
MLM_T1/2 [3]: ∞

Cn1cc2c(c1C(N)=O)CCN(c1ccc(F)cc1)c1ncc(F)cc1-2 [Compound 4005, 9-fluoro-6-(4-fluorophenyl)-2-methyl-2,4,5,6-tetrahydropyrido[2,3-b]pyrrolo[3,4-d]azepin-3-carboxamide]
IC50 (MV-4-11 cells; [4]): > 10000 nM
IC50 (BRD4 (BD1)): 163 nM
IC50 (BRD4 (BD2)): 550 nM
IC50 (SU-DHL-6 cells; 72 hours, CellTiter-Glo): > 10000 nM

Cn1cc2c(c1C#N)CC(=O)N(c1ccc(F)cc1)c1ccc(CS(C)(=O)=O)cc1-2 [Compound 4003, 6-(4-Fluorophenyl)-2-methyl-9-(methylsulfonemethyl)-5-oxo-2,4,5,6-tetrahydrobenzo[b]pyrrolo[3,4-d]azepin-3-nitrile]
IC50 (MV-4-11 cells; [4]): 1550 nM
IC50 (BRD4 (BD1)): 148 nM
IC50 (BRD4 (BD2)): 16 nM
IC50 (SU-DHL-6 cells; 72 hours, CellTiter-Glo): 2040 nM

Cc1sc2c(c1C)C(c1ccc(Cl)cc1)=N[C@@H](CC(=O)OC(C)(C)C)c1nnc(C)n1-2 [(+)-JQ1, reference compound]
IC50 (MV-4-11 cells; MV4-11, 72 h): 248 nM
IC50 (SU-DHL-6 cells; SU-DHL-6, 72 h): 198 nM
